From ChEMBL document CHEMBL1139928, “Selective and dual action orally active inhibitors of thrombin and factor Xa” (Bioorg Med Chem Lett, 2007)

Assays:
[1] = Volume of distribution in Beagle dog; assay type: ADME, organism-based, Canis lupus familiaris; settings: in vivo, read-out: Vdss
[2] = Half life in Beagle dog; assay type: ADME, organism-based, Canis lupus familiaris; settings: in vivo
[3] = Oral bioavailability in Sprague-Dawley rat; assay type: ADME, organism-based; settings: in vivo
[4] = Half life in Sprague-Dawley rat; assay type: ADME, organism-based; settings: in vivo
[5] = Plasma clearance in Beagle dog; assay type: ADME, organism-based, Canis lupus familiaris
[6] = Oral bioavailability in Beagle dog; assay type: ADME, organism-based, Canis lupus familiaris; settings: in vivo
[7] = Volume of distribution in Sprague-Dawley rat; assay type: ADME, organism-based; settings: in vivo, read-out: Vdss
[8] = Plasma clearance in Sprague-Dawley rat; assay type: ADME, organism-based

| Vd [1] [L/kg] | half-life [2] [min] | bioavailability [3] [%] | half-life [4] [min] | clearance [5] [mL/min/kg] | bioavailability [6] [%] | Vd [7] [L/kg] | clearance [8] [mL/min/kg] | SMILES |
| --- | --- | --- | --- | --- | --- | --- | --- | --- |
| 0.3 | 36 | 32 | 18 | 5.7 | 48 | 0.4 | 21 | C/C(=C\S(=O)(=O)N[C@H]1CCN([C@@H](C)C(=O)N2CCOCC2)C1=O)c1ccc(Cl)s1 |
| 0.5 | 30 | 31 | 18 | 13 | 38 | 0.8 | 28 | C[C@@H](C(=O)N1CCOCC1)N1CC[C@H](NS(=O)(=O)CCc2ccc(Cl)s2)C1=O |
| 0.4 | – | – | – | 4.6 | – | 0.3 | 8 | C[C@@H](C(=O)N1CCOCC1)N1CC[C@H](NS(=O)(=O)/C=C/c2ccc(Cl)s2)C1=O [GW813893] |
